Experimental data taken from patent US6583132B1, “Oxidant scavengers” (Duke University, priority 1993, dated 2003).

Legend:
[1] = CNS oxygen toxicity, 6 ATA hyperbaric oxygen exposure; type: in vivo, mice; conditions: for Survival: 6 ATA oxygen 25 minutes, DDC 400 mg/kg i.p. or LNNA 20 mg/kg i.p.
Experimental: Oxygen exposures: 7-8 week old mice were exposed to hyperbaric oxygen five at a time in a small-animal chamber (Bethlehem, Pa.). After flushing the chamber with pure oxygen, compression to 50 meters (6 ATA) was performed within 5 minutes. The oxygen concentration in the chamber was monitored continuously with a Servomex oxygen analyzer (model 572, Sybron, Norwood, Mass.) and maintained at ≳99%. The carbon dioxide concentration was analyzed from intermittent samples of chamber gas with an IR detector (IR Industries, Santa Barbara, Calif.) and was not allowed to rise above 0.1%. The chamber temperature was maintained at 25-26° C., but the compression of oxygen in the chamber raised the temperature to 30-32° C. transiently, but an environmental control system restored the normal chamber temperature within 3 minutes. […] The mice were observed continuously for signs of oxygen toxicity from the beginning of the exposure until 4 hours after removal from the chamber. The time to the first generalized convulsion (seizure latency) and the time to death were recorded. These exposure conditions are designed to cause CNS oxygen toxicity without appreciable evidence of pulmonary oxygen toxicity.
Treatment with diethyldithiocarbamate: One hour prior to exposure to 6 ATA oxygen, mice were given either i.p. injections of either 0.008 cc/g saline or 400 mg/kg diethyldithiocarbamate dissolves in normal saline (0.008 cc/g). The mice were then exposed to 6 ATA oxygen for 25 minutes as described above.
Treatment with β-mercaptoethanol: One hour prior to exposure to 6 ATA oxygen, mice were given either i.p. injections of 0.008 cc/g saline or 180 mg/kg β-mercaptoethanol (0.008 cc/g). This dose of β-mercaptoethanol was selected because it contains an equal number of reducing thiols as the dose of diethyldithiocarbamate. The mice were then exposed to 6 ATA oxygen for 30 minutes as described above.
Treatment with N-ω-nitro-L-arginine, an inhibitor of nitric oxide synthase: Ten minutes prior to beginning compression, 0.008 cc/g saline or 20 mg/kg (0.008 cc/g) N-ω-nitro-L-arginine dissolved in sterile water was given i.p to the transgenic and nontransgenic mice. Mice were then exposed at 6 ATA oxygen for 25 or 75 minutes as described above.

rat cortical cells = test: Neurotoxicity (LDH release) in cortical cell culture; type: cell-based; conditions: for NMDA-induced LDH release: 1 mM NOS inhibitor
Experimental: (§1) Tissue culture: Mixed neuronal and glial cultures were prepared from embryonic day-18 rat cerebral cortices (Sprague-Dawley, Zivic Miller). Briefly, the cerebral cortices were dissected and enzymatically dissociated by incubation in Ca^++-, Mg^++-free Hank's balanced salt solution (HBSS) supplemented with 10 mM HEPES and 0.25% trypsin for 20 min. at 37° C. The tissue was rinsed and dispersed into single cell suspension by gentle passage through a fire polished Pasteur pipette. The cell suspension was centrifuged and resuspended in Minimum Essential Media (MEM), containing Earle's salts supplemented with 3 g/L glucose, 5% horse serum and 5% fetal bovine serum (growth media). The cells were plated in poly-D-lysine-coated multi-well plates: 12-well plates for aconitase measurement, and 24 well plates for toxicity experiments. Cells were maintained at 37° C. in a humidified incubator with 5% CO2/95% air in growth media. Media was not replaced so as to reduce glial overgrowth and neuronal loss. Mature cells (14-17 days in vitro) were used for all experiments.
(§2) Cell treatment: The growth media was replaced with MEM supplemented with 25 mM glucose (MEM-g). For both neurotoxicity studies and aconitase measurement, cells were incubated in the designated treatment for the indicated length of time at 37° C. Unless otherwise specified, antagonists or SOD-mimetics were added 15 min. prior to agonists. For measurement of neurotoxicity, cells were incubated with treatments for 18 hr at 37° C. in MEM-g. To access the ability of antagonists to inhibit acute NMDA toxicity or rescue cells from an ongoing NMDA insult, an alternate paradigm of NMDA treatment was used in addition to the one describe above. In this paradigm, growth media was replaced with HBSS^+ (Ca^++-, Mg^++-free Hank's Balanced Salt Solution supplemented with 2 mM CaCl2, 1 mM NaHCO3, 10 mM HEPES and 5 μM glycine), cells were treated with vehicle or 100 μM NMDA for 15 min. after which HBSS^+ was replaced with MEM-g and cells were returned to the incubator for 18 additional hrs. Antagonsists or SOD-mimetics were added to the cells 15 min. before NMDA exposure or 15, 30 or 60 min. following final media replacement. For determination of Ca^++-dependence, cells were incubated in HBSS^+ with no added Ca^++. When kainate (KA) was used as an agonist, 100 μM D-APV was routinely included to block secondary NMDA receptor activation. Catalase (100 U/ml) was always included when xanthine plus xanthine oxidase (X+XO) was used as a treatment to rule out the contribution of hydrogen peroxide.
Neurotoxicity studies: Neurotoxicity was determined by the measurement of LDH released in the supernatant media as previously described (Patel et al, Toxicol. Appl. Pharmacol. 115:124 (1991) and Neurotoxicology 14:35 (1992)). LDH was measured by the method of Vassault, Lactate dehydrogenase. In: Methods of Enzymatic Analysis, Bergmeyer HU (ed), Verlag Chemie, Weinheim, pp. 118-126 (1983). Additionally, cell death was confirmed with ethidium-1 homodimer (EthD-1). Briefly, the cells were washed with HBSS, loaded with 20 μM EthD-1 for 30 min,. rinsed and viewed through fluorescence optics. The number of dead cells labeled with EthD-1 were counted in 4-6 randomly selected fields, the numbers averaged to give an estimate of cell death and the experiment was repeated 3 times.

aconitase = test: Aconitase activity in cortical cell lysates; type: cell-based, rat; conditions: for NMDA-induced aconitase inactivation: 1 mM NOS inhibitor; for decrease in aconitase activity: PQ^++ 3 hrs, NMDA 1 hr, KA 6 hrs
Experimental: as §1, §2
Aconitase measurement: For the measurement of aconitase, following treatment with agents, media was removed and cells lysed in ice-cold 50 mM, Tris/HCl, pH 7.4 containing 0.6 mM MnCl2, 1 mM L-cysteine, 1 mM citrate and 0.5% Triton-X 100. The aconitase activity of cell lysates was measured spectrophotometrically by monitoring the formation of cis-aconitate from isocitrate at 240 nm in 50 mM Tris/HCl, pH 7.4, containing 0.6 mM MnCl2 and 20 mM isocitrate at 25° C. (Kreb and Holzach, Biochem. J. 52:527 (1952); Gardner and Fridovich, J. Biol. Chem. 267:8757 (1992)). […] Aconitase activity in cortical cell lysates was inhibited by 0.1 mM potassium ferricyanide or by boiling of sample.

Cold-induced brain edema = type: in vivo, mice; conditions: for Edema Index: mean ± standard error; for less edema formation compared to saline treated controls: pretreatment i.p.
Experimental: Injury model: Young (6-7 week) mice (see Example I) were anesthetized with 60 mg/kg pentobarbital (Nembutal, Abbott Laboratories, Chicago, Ill.). An incision was then made in the scalp and a steel rod 20 cm long, 3 mm in diameter, equilibrated in liquid nitrogen with an 8 cm bath of liquid nitrogen 4 cm from the end of the rod, was placed on the skull over the right cerebral hemisphere for 30 seconds. The skin incision was then sutured.
Two hours after the injury the mouse was given an additional dose of pentobarbital. The chest cavity was opened, the lungs were excised, and the mouse was then perfused with 20 ml saline through the left ventricle of the heart. The brain was then removed and the cerebellum was excised. The right (R) and left (L) cerebral hemispheres were separated and immediately weighed (wet weight, W). Each hemisphere was then dried at 70° C. for 2-3 days in a hot air oven until a constant weight was achieved (dry weight, D). An index of edema (I) was then calculated as shown in equation 13.
I=(W/D R−W/DL)/(W/DL)×100 [13]
Chemical treatments: Six groups of experiments were conducted to investigate the importance of extracellular superoxide, iron, and nitric oxide in cold-induced brain edema. In all groups, drugs were dissolved in saline and injected at 0.008 cc/g 15 minutes prior to cold injury. In Group 1, edema formation of EC-SOD transgenic mice was compared with that of nontransgenic littermates. Group 2 compared edema formation between wild-type (C57BL/6×C3H)F1 mice treated with saline and (C57BL/6×C3H)F1 mice treated with 0.33 mg/g deferoxamine (0.51 μmoles/g). Group 3 compared (C57BL/6×C3H)F1 mice treated with saline to (C57BL/6×C3H)F1 mice treated with 0.51 μmoles/g Fe^3÷− saturated deferoxamine. Group 4 consisted of (C57BL/6×C3H)F1 mice treated with saline and (C57BL/6×C3H)F1 mice treated with 0.02 mg/g N-ω-nitro-L-arginine methyl ester. Group 5 consisted of (C57BL/6×C3H)F1 mice treated with saline and (C75BL/6×C3H)F1 mice treated with 0.02 mg/g N-ω-nitro-L-arginine methyl ester plus 0.05 mg/g L-arginine. Group 6 compared edema formation between nontransgenic mice, EC-SOD transgenic mice treated with saline, and EC-SOD transgenic mice treated with 0.02 mg/g N-ω-nitro-L-arginine methyl ester.
Iron saturated deferoxamine was made by dissolving equimolar amounts of deferoxamine and then ferric chloride in saline. Saturation of deferoxamine with ferric iron was determined spectrophotometrically be measuring the absorbance at 425 nm (ε=2500 M^−1 cm^−1 for Fe3+-deferoxamine) (Monzyk and Crumbliss, J. Amer. Chem. Soc. 104:4921 (1982)).

J774 macrophages = test: Mitochondrial respiration (MTT) in J774 macrophages; type: cell-based; conditions: IFN alone, 10 U/ml
Experimental: Cell culture: J774 macrophages were cultured in DMEM medium, supplemented with L-glutamine (3.5 mmol/L) and 10% fetal calf serum. Cells were cultured in 96-well plates (200 μl medium/well) until confluence. To induce the inducible isoform of nitric oxide synthase (iNOS), fresh culture medium containing E. coli LPS (011:B4, 10 μg/ml) alone or in combination with murine γ-interferon (γ-IFN, 10 U/ml) was added in the presence or absence of the NOS inhibitor, the SOD mimetic of the combination of the two compounds for 24 h. Moreover, cells were exposed to the NO donor compounds S-nitroso-N-acetyl-DL-penicillamine (SNAP) (3 mM) and diethylamine:NO NONOate (DNO) (3 mM) for 24 h or to authentic peroxynitrite (1 mM) for 1 h). Nitride/nitrate concentration in the medium and mitochondrial respiration were then measured as described below.
Measurement of mitochondrial respiration: Cell respiration was assessed by the mitochondrial-dependent reduction of 3-(4,5-dimethylthiazol-2-yl)-2,5-diphenyltetrazolium bromide (MTT) to formazan. Cells in 96-well plates were incubated at 37° C. with MTT (0.2 mg/ml) for 1 hour. Culture medium was removed by aspiration and the cells were solubilized in DMSO (100 μl). The extent of reduction of MTT to formazan within cells was quantitated by the measurement of OD550. All measurements were corrected for the interference of MnTBAP at this wavelength.

OCCS [β-mercaptoethanol]
protection against CNS oxygen toxicity ([1]; 180 mg/kg i.p., 6 ATA oxygen 30 minutes): did not protect against CNS oxygen toxicity

COC(=O)[C@@H](N)CCCNC(=N)N[N+](=O)[O-] [LNAME, N-ω-nitro-L-arginine methyl ester]
NMDA-induced LDH release (rat cortical cells): unchanged
NMDA-induced aconitase inactivation (aconitase): unchanged
Edema Index (Cold-induced brain edema; EC-SOD transgenic mice, 20 mg/kg 15 minutes prior to cold-induced injury): 4.30 ± 0.96
Edema Index (Cold-induced brain edema; wild-type mice, 0.02 mg/g LNAME, with or without 0.05 mg/g L-arginine): 3.65 ± 0.51
less edema formation compared to saline treated controls (Cold-induced brain edema; wild-type mice): 37%

CN[C@H](CC(=O)O)C(=O)O [NMDA, N-methyl-D-aspartate]
decrease in aconitase activity (aconitase): 40%

C[n+]1ccc(-c2cc[n+](C)cc2)cc1 [PQ^++, methylviologen (paraquat)]
decrease in aconitase activity (aconitase): 70%

NC(=NCCC[C@H](N)C(=O)O)N[N+](=O)[O-] [N-ω-nitro-L-arginine]
NMDA-induced LDH release (rat cortical cells): unchanged
NMDA-induced aconitase inactivation (aconitase): unchanged
difference in sensitivity between transgenic and nontransgenic mice ([1]; 20 mg/kg i.p., 6 ATA oxygen 75 minutes): abolished the difference in sensitivity
Survival ([1]; nontransgenic mice): 100%
seizure latency ([1]; transgenic and nontransgenic mice, 20 mg/kg i.p., 6 ATA oxygen): significantly delayed
Survival ([1]; transgenic mice): 100%
seizure latency ([1]; wild-type mice, 20 mg/kg i.p., 6 ATA oxygen): 13.50 ± 5.6 min
mortality ([1]; wild-type mice, 20 mg/kg i.p., 90 minutes of 6 ATA oxygen): 50%
mortality ([1]; wild-type mice, 20 mg/kg i.p., 2 hours of 6 ATA oxygen): 100%

N[C@H](CCCP(=O)(O)O)C(=O)O [D-APV, reference compound]
LDH release (rat cortical cells; condition "pre", 100 μM D-APV, 100 μM NMDA 15 min.): complete blockade

C[C@]12N[C@H](Cc3ccccc31)c1ccccc12 [MK801, reference compound]
reduction of LDH release / protective effect (rat cortical cells; added 15 min. after 15 min. 100 μM NMDA, 200 μM MnTBAP, 10 μM MK801): 17%

N=C(N)NCCC[C@H](N)C(=O)O [L-arginine]
effect of excess L-arginine on protection by N-ω-nitro-L-arginine ([1]; 20 mg/kg LNNA plus 50 mg/kg L-arginine, 6 ATA oxygen): could be reversed

CC(=O)N(O)CCCCCNC(=O)CCC(=O)N(O)CCCCCNC(=O)CCC(=O)N(O)CCCCCN [Deferoxamine, deferoxamine]
Edema Index (Cold-induced brain edema; wild-type mice, 0.51 μmoles/g, 15 minutes prior to cold injury): 3.41 ± 0.49
less edema formation compared to saline treated controls (Cold-induced brain edema; wild-type mice): 43%

C=C(C)[C@H]1CN[C@H](C(=O)O)[C@H]1CC(=O)O [KA, kainate]
decrease in aconitase activity (aconitase): 42%

B1: IFN: murine γ-interferon (protein, UniProt P01580 23-155, looked up)
Interferon gamma: HGTVIESLESLNNYFNSSGIDVEEKSLFLDIWRNWQKDGDMKILQSQIISFYLRLFEVLKDNQAISNNISVIESHLITTFFSNSKAKKDAFMSIAKFEVNNPQVQRQAFNELIRVVHQLLPESSLRKRKRSRC
suppression of respiration (J774 macrophages): < 15%
